Like-named read-outs stand apart in the source and are kept apart here.
Assays:
[1] = system: phosphorylated AKT Ser473 (pAKT S473), mTORC2 activity, PC3 cells; assay: mTOR target engagement assay, immunofluorescent cell-based, pAKT S473 readout (mTORC2 activity); details: Homo sapiens
In short: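 After blocking, cells were stained overnight at 4 °C with anti-pAKT S473 antibody, then a fluorescent secondary; inhibition was read as reduced fluorescence intensity.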

[2] = system: phosphorylated 4E-BP1 Thr37/46 (p4E-BP1 Thr37/46), mTORC1 activity, PC3 cells; assay: mTOR target engagement assay, immunofluorescent cell-based, p4E-BP1 Thr37/46 readout (mTORC1 activity); details: Homo sapiens, read-out: p4E-BP1 Thr37/46 IC50
In short: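 Seed PC3 cells overnight; treat with compound dilutions for ninety minutes at 37° C; fix with glyoxal and block; stain with anti-p4E-BP1 Thr37/46 overnight at 4° C, then fluorescent secondary; read fluorescence and fit IC50 against DMSO-only controls.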

[3] = PC-3, PC3 cells, compound treatment ninety minutes at 37° C.

Compound	IC50 [1, 3] [nM]	IC50 [2, 3] [nM]	further results
CC(=O)c1c([C@@H]2C[C@H]3CC[C@@H](C2)N3C(=O)c2nnc[nH]2)nc2c(-c3cnn(C)c3)cnn2c1N [Compound 1.1.151, 1-(5-((1R,3s,5S)-8-(4H-1,2,4-triazole-3-carbonyl)-8-azabicyclo[3.2.1]octan-3-yl)-7-amino-3-(1-methyl-1H-pyrazol-4-yl)pyrazolo[1,5-a]pyrimidin-6-yl)ethanone]	100 to 1000	100 to 1000	
CC(=O)c1c([C@@H]2C[C@H]3CC[C@@H](C2)N3C(=O)CO)nc2c(-c3ccc(C#CC4CC4)nc3)cnn2c1N [Compound 8.61, 1-((1R,3s,5S)-3-(6-acetyl-7-amino-3-(6-(cyclopropylethynyl)pyridin-3-yl)pyrazolo[1,5-a]pyrimidin-5-yl)-8-azabicyclo[3.2.1]octan-8-yl)-2-hydroxyethanone]			IC50 ([1]; PC-3, PC3 cells): 100 to 1000 nM; IC50 ([2]; PC-3, PC3 cells): 100 to 1000 nM
CS(=O)(=O)c1c([C@@H]2C[C@H]3CC[C@@H](C2)N3C(=O)c2cc(C(F)(F)F)n[nH]2)nc2c(-c3ccc(-c4ccccc4)nc3)cnn2c1N [Compound 3.73, ((1R,3s,5S)-3-(7-amino-6-(methylsulfonyl)-3-(6-phenylpyridin-3-yl)pyrazolo[1,5-a]pyrimidin-5-yl)-8-azabicyclo[3.2.1]octan-8-yl)(3-(trifluoromethyl)-1H-pyrazol-5-yl)methanone]			IC50 ([1]; PC-3, Table 3-1, PC3 cells): 1000 to 10000 nM; IC50 ([2]; PC-3, Table 3-1, PC3 cells): > 10000 nM
CC(C)(O)c1ncc(-c2cnn3c(N)c(S(C)(=O)=O)c([C@@H]4C[C@H]5CC[C@@H](C4)N5C(=O)c4nnc[nH]4)nc23)cn1 [Compound 3.152, ((1R,3s,5S)-3-(7-amino-3-(2-(2-hydroxypropan-2-yl)pyimidin-5-yl)-6-(methylsulfonyl)pyrazolo[1,5-a]pyrimidin-5-yl)-8-azabicyclo[3.2.1]octan-8-yl)(4H-1,2,4-triazol-3-yl)methanone]			IC50 ([1]; PC-3, Table 3-1, PC3 cells): 1000 to 10000 nM; IC50 ([2]; PC-3, Table 3-1, PC3 cells): 1000 to 10000 nM
CCOC(=O)Nc1ccc(-c2cnn3c(N)c(C(C)=O)c([C@@H]4C[C@H]5CC[C@@H](C4)N5C(=O)c4ncn[nH]4)nc23)cn1 [Compound 8.78, ethyl 5-(5-((1R,3s,5S)-8-(1H-1,2,4-triazole-5-carbonyl)-8-azabicyclo[3.2.1]octan-3-yl)-6-acetyl-7-aminopyrazolo[1,5-a]pyrimidin-3-yl)pyridin-2-ylcarbamate]			IC50 ([1]; PC-3, PC3 cells): 1 to 100 nM; IC50 ([2]; PC-3, PC3 cells): 1 to 100 nM
CC(C)(O)c1ccc(-c2cnn3c(N)c(C4CC4)c([C@@H]4C[C@H]5CC[C@@H](C4)N5C(=O)c4nnc[nH]4)nc23)cn1 [Compound 7.39, ((1R,3s,5S)-3-(7-amino-6-cyclopropyl-3-(6-(2-hydroxypropan-2-yl)pyridin-3-yl)pyrazolo[1,5-a]pyrimidin-5-yl)-8-azabicyclo[3.2.1]octan-8-yl)(4H-1,2,4-triazol-3-yl)methanone]			IC50 ([1]; PC-3, Table 7-8, PC3 cells): 1 to 100 nM; IC50 ([2]; PC-3, Table 7-8, PC3 cells): 1 to 100 nM
COCc1cc(-c2ccc(-c3cnn4c(N)c(C(C)=O)c([C@@H]5C[C@H]6CC[C@@H](C5)N6C(=O)CO)nc34)cn2)ccc1OC [Compound 1.1.44, 1-((1R,3s,5S)-3-(6-acetyl-7-amino-3-(6-(4-methoxy-3-(methoxymethyl)phenyl)pyridin-3-yl)pyrazolo[1,5-a]pyrimidin-5-yl)-8-azabicyclo[3.2.1]octan-8-yl)-2-hydroxyethanone]	1 to 100	100 to 1000	
CS(=O)(=O)c1c([C@@H]2C[C@H]3CC[C@@H](C2)N3S(=O)(=O)c2nnc[nH]2)nc2c(-c3ccc(-c4ccccc4)nc3)cnn2c1N [Compound 3.26, 5-((1R,3s,5S)-8-(4H-1,2,4-triazol-3-ylsulfonyl)-8-azabicyclo[3.2.1]octan-3-yl)-6-(methylsulfonyl)-3-(6-phenylpyridin-3-yl)pyrazolo[1,5-a]pyrimidin-7-amine]			IC50 ([1]; PC-3, Table 3-1, PC3 cells): 100 to 1000 nM; IC50 ([2]; PC-3, Table 3-1, PC3 cells): 1000 to 10000 nM
COCCNC(=O)N1[C@@H]2CC[C@H]1C[C@H](c1nc3c(-c4ccc(-c5ccccc5)nc4)cnn3c(N)c1C1CC1)C2 [Compound 4.7, (1R,3s,5S)-3-(7-amino-6-cyclopropyl-3-(6-phenylpyridin-3-yl)pyrazolo[1,5-a]pyrimidin-5-yl)-N-(2-methoxyethyl)-8-azabicyclo[3.2.1]octane-8-carboxamide]	100 to 1000	100 to 1000	
CC(=O)c1c([C@@H]2C[C@H]3CC[C@@H](C2)N3C(=O)c2nnc[nH]2)nc2c(-c3ccc(-n4cccn4)nc3)cnn2c1N [Compound 1.1.177, 1-(3-(6-(1H-pyrazol-1-yl)pyridin-3-yl)-5-((1R,3s,5S)-8-(4H-1,2,4-triazole-3-carbonyl)-8-azabicyclo[3.2.1]octan-3-yl)-7-aminopyrazolo[1,5-a]pyrimidin-6-yl)ethanone]	1 to 100	1 to 100	
CC(=O)c1c([C@@H]2C[C@H]3CC[C@@H](C2)N3C(=O)c2nnc[nH]2)nc2c(-c3ccc(-c4ccccn4)nc3)cnn2c1N [Compound 1.1.146, 1-(3-(2,2′-bipyridin-5-yl)-5-((1R,3s,5S)-8-(4H-1,2,4-triazole-3-carbonyl)-8-azabicyclo[3.2.1]octan-3-yl)-7-aminopyrazolo[1,5-a]pyrimidin-6-yl)ethanone]	1 to 100	1 to 100	
CC(=O)c1c(C2CC3CCC(C2)N3C(=O)c2nn[nH]n2)nc2c(-c3ccc(-c4ccccc4)nc3)cnn2c1N [Compound 1.1.24, 1-(5-((1R,3s,5S)-8-(1H-tetrazole-5-carbonyl)-8-azabicyclo[3.2.1]octan-3-yl)-7-amino-3-(6-phenylpyridin-3-yl)pyrazolo[1,5-a]pyrimidin-6-yl)ethanone]	1000 to 10000	1000 to 10000	
Cn1ccc(-c2ccc(-c3cnn4c(N)c(C5CC5)c([C@@H]5C[C@H]6CC[C@@H](C5)N6C(=O)CO)nc34)cn2)n1 [Compound 4.18, 1-((1R,3s,5S)-3-(7-amino-6-cyclopropyl-3-(6-(1-methyl-1H-pyrazol-3-yl)pyridin-3-yl)pyrazolo[1,5-a]pyrimidin-5-yl)-8-azabicyclo[3.2.1]octan-8-yl)-2-hydroxyethanone]	1 to 100	1 to 100	
CC(=O)c1c([C@@H]2C[C@H]3CC[C@@H](C2)N3C(=O)c2nnc[nH]2)nc2c(-c3ccc(-c4cc(C)[nH]n4)nc3)cnn2c1N [Compound 1.1.95, 1-(5-((1R,3s,5S)-8-(4H-1,2,4-triazole-3-carbonyl)-8-azabicyclo[3.2.1]octan-3-yl)-7-amino-3-(6-(5-methyl-1H-pyrazol-3-yl)pyridin-3-yl)pyrazolo[1,5-a]pyrimidin-6-yl)ethanone]	1000 to 10000	1000 to 10000	
CC(=O)c1c([C@@H]2C[C@H]3CC[C@@H](C2)N3C(=O)c2nnc[nH]2)nc2c(-c3ccc(-c4ncc[nH]4)nc3)cnn2c1N [Compound 6.4, 1-(3-(6-(1H-imidazol-2-yl)pyridin-3-yl)-5-((1R,3s,5S)-8-(4H-1,2,4-triazole-3-carbonyl)-8-azabicyclo[3.2.1]octan-3-yl)-7-aminopyrazolo[1,5-a]pyrimidin-6-yl)ethanone]			IC50 ([1]; PC-3, Table 6-1, PC3 cells): 1 to 100 nM; IC50 ([2]; PC-3, Table 6-1, PC3 cells): 1 to 100 nM
CC(=O)c1c([C@@H]2C[C@H]3CC[C@@H](C2)N3C(=O)c2cncc(O)c2)nc2c(-c3ccc(-c4ccccc4)nc3)cnn2c1N [Compound 1.1.50, 1-(7-amino-5-((1R,3s,5S)-8-(5-hydroxynicotinoyl)-8-azabicyclo[3.2.1]octan-3-yl)-3-(6-phenylpyridin-3-yl)pyrazolo[1,5-a]pyrimidin-6-yl)ethanone]	100 to 1000	100 to 1000	
CC(=O)c1c([C@@H]2C[C@H]3CC[C@@H](C2)N3C(=O)c2ccc[nH]2)nc2c(-c3ccc(-c4ccccc4)nc3)cnn2c1N [Compound 1.1.43, 1-(5-((1R,3s,5S)-8-(1H-pyrrole-2-carbonyl)-8-azabicyclo[3.2.1]octan-3-yl)-7-amino-3-(6-phenylpyridin-3-yl)pyrazolo[1,5-a]pyrimidin-6-yl)ethanone]	100 to 1000	100 to 1000	
CS(=O)(=O)c1c([C@H]2CC3CC[C@H](C2)N3C(=O)c2cn[nH]n2)nc2c(-c3ccc(-c4ccccc4F)nc3)cnn2c1N [Compound 3.170, ((1R,3s,5S)-3-(7-amino-3-(6-(2-fluorophenyl)pyridin-3-yl)-6-(methylsulfonyl)pyrazolo[1,5-a]pyrimidin-5-yl)-8-azabicyclo[3.2.1]octan-8-yl)(2H-1,2,3-triazol-4-yl)methanone]			IC50 ([1]; PC-3, Table 3-1, PC3 cells): 100 to 1000 nM; IC50 ([2]; PC-3, Table 3-1, PC3 cells): 100 to 1000 nM
COc1ccc(-c2ccc(-c3cnn4c(N)c(S(C)(=O)=O)c([C@@H]5C[C@H]6CC[C@@H](C5)N6C(=O)c5nnc[nH]5)nc34)cn2)cc1C [Compound 3.50, ((1R,3s,5S)-3-(7-amino-3-(6-(4-methoxy-3-methylphenyl)pyridin-3-yl)-6-(methylsulfonyl)pyrazolo[1,5-a]pyrimidin-5-yl)-8-azabicyclo[3.2.1]octan-8-yl)(4H-1,2,4-triazol-3-yl)methanone]			IC50 ([1]; PC-3, Table 3-1, PC3 cells): 1 to 100 nM; IC50 ([2]; PC-3, Table 3-1, PC3 cells): 1 to 100 nM
Cc1[nH]nc(-c2ccc(-c3cnn4c(N)c(C5CC5)c([C@@H]5C[C@H]6CC[C@@H](C5)N6C(=O)c5nnc[nH]5)nc34)cn2)c1F [Compound 4.19, ((1R,3s,5S)-3-(7-amino-6-cyclopropyl-3-(6-(4-fluoro-5-methyl-1H-pyrazol-3-yl)pyridin-3-yl)pyrazolo[1,5-a]pyrimidin-5-yl)-8-azabicyclo[3.2.1]octan-8-yl)(4H-1,2,4-triazol-3-yl)methanone]	100 to 1000	100 to 1000	

Source: patent US9227971B2, “Pyrazolo[1,5-a]pyrimidine compounds as mTOR inhibitors” (Merck Sharp & Dohme Corp., priority 2010, dated 2016)
